This experiment concerns NCI-H460 lung cancer cell line. Kind of experiment: Cell proliferation inhibition. It counts as cell-based. The following applies: Homo sapiens, docetaxel concentration, Graph Pad Prism 2.1, read-out: IC50 (concentration at which the proliferation of 50% of the population is inhibited). The procedure: The % of cell viability at different concentrations of DCX is depicted for polyarginine NC, DCX in solution, polyarginine/DCX NC.
In order to evaluate the potential of the PArg nanocapsules encapsulating the docetaxel cytostatic molecule to inhibit the cell proliferation of the NCI-H460 lung cancer cell line the nanocapsules were prepared according to the method described in Example 3. The results shown in FIG. 9 show the great proliferation inhibition capacity of the nanocapsules encapsulating docetaxel in comparison with the free molecule. […] The IC50 values, concentration at which the proliferation of 50% of the population is inhibited, were calculated by means of the Graph Pad Prism 2.1 program (Graph Pad Software).

For the compound `CC(=O)O[C@@]12CO[C@@H]1C[C@H](O)[C@@]1(C)C(=O)[C@H](O)C3=C(C)[C@@H](OC(=O)[C@H](O)[C@@H](NC(=O)OC(C)(C)C)c4ccccc4)C[C@@](O)([C@@H](OC(=O)c4ccccc4)[C@H]21)C3(C)C` [docetaxel solution, docetaxel], the IC50 was determined as 13.3 nM.

Source of the values: patent US20120121670A1, “POLYARGININE NANOCAPSULES” (priority 2009, published 2012).
